Measured values from the supplement of paper PMC10307832.

Key:
Test in all cases: relative viability (nuclei count vs DMSO), 5 days (fraction); higher = more cells survive
XMD8-85 + Bortezomib = compound: CN1CCN(CC1)C2=CC(=C(C=C2)NC3=NC=C4C(=N3)N(C5=CC=CC=C5C(=O)N4C)C)OC [XMD8-85] + CC(C)C[C@H](NC(=O)[C@H](Cc1ccccc1)NC(=O)c1cnccn1)B(O)O [Bortezomib] (partner 0.002 µM)
In short: (§1)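 For relative viability, nuclei counts in treated wells were divided by those in vehicle wells. Lung cancer cell lines had been pin-tool dosed in 1536-well plates the day after seeding and cultured for 5 days, then fixed and stained in one step (final 0.05% Triton X-100, 1% formaldehyde, 1 ug/ml Hoechst) and imaged at 4×. Doses were one drug alone or a fixed anchor-drug dose plus five library-drug doses (not always all listed) in √10 steps, and values are duplicate-plate medians.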

4EGI-1 + Palbociclib = compound: O=C(O)C(Cc1ccccc1[N+](=O)[O-])=NNc1nc(-c2ccc(Cl)c(Cl)c2)cs1 (mixture of isomers) [4EGI-1] + CC(=O)c1c(C)c2cnc(Nc3ccc(N4CCNCC4)cn3)nc2n(C2CCCC2)c1=O [Palbociclib] (partner 0.5 µM)
In short: as §1

XMD8-85 + Linsitinib = compound: CN1CCN(CC1)C2=CC(=C(C=C2)NC3=NC=C4C(=N3)N(C5=CC=CC=C5C(=O)N4C)C)OC [XMD8-85] + C[C@]1(O)C[C@@H](c2nc(-c3ccc4ccc(-c5ccccc5)nc4c3)c3c(N)nccn32)C1 [Linsitinib] (partner 1 µM)
In short: as §1

4EGI-1 + Dasatinib = compound: O=C(O)C(Cc1ccccc1[N+](=O)[O-])=NNc1nc(-c2ccc(Cl)c(Cl)c2)cs1 (mixture of isomers) [4EGI-1] + Cc1nc(Nc2ncc(C(=O)Nc3c(C)cccc3Cl)s2)cc(N2CCN(CCO)CC2)n1 [Dasatinib] (partner 0.075 µM)
In short: as §1

Cell Line | relative viability (XMD8-85 + Bortezomib; first compound 0.08 µM) | relative viability (XMD8-85 + Bortezomib; first compound 0.253 µM) | relative viability (XMD8-85 + Bortezomib; first compound 0.8 µM) | relative viability (XMD8-85 + Bortezomib; first compound 2.53 µM) | relative viability (XMD8-85 + Bortezomib; first compound 8 µM) | relative viability (4EGI-1 + Palbociclib; first compound 0.5 µM) | relative viability (4EGI-1 + Palbociclib; first compound 1.581 µM) | relative viability (4EGI-1 + Palbociclib; first compound 5 µM) | relative viability (4EGI-1 + Palbociclib; first compound 15.81 µM) | relative viability (4EGI-1 + Palbociclib; first compound 50 µM) | relative viability (XMD8-85 + Linsitinib; first compound 0.08 µM) | relative viability (XMD8-85 + Linsitinib; first compound 0.253 µM) | relative viability (XMD8-85 + Linsitinib; first compound 0.8 µM) | relative viability (XMD8-85 + Linsitinib; first compound 2.53 µM) | relative viability (XMD8-85 + Linsitinib; first compound 8 µM) | relative viability (4EGI-1 + Dasatinib; first compound 0.5 µM) | relative viability (4EGI-1 + Dasatinib; first compound 1.581 µM) | relative viability (4EGI-1 + Dasatinib; first compound 5 µM) | relative viability (4EGI-1 + Dasatinib; first compound 15.81 µM) | relative viability (4EGI-1 + Dasatinib; first compound 50 µM)
NCI-H1355 | 1.28 | 1.26 | 1.13 | 1.21 | 1.11 | 0.415 | 0.396 | 0.406 | 0.337 | 0.316 | 0.807 | 0.913 | 0.828 | 0.715 | 0.829 | 0.786 | 0.64 | 0.682 | 0.497 | 0.349
HOP-62 | 0.646 | 0.698 | 0.863 | 0.719 | 0.681 | 0.449 | 0.416 | 0.489 | 0.505 | 0.319 | 1.15 | 0.966 | 0.87 | 0.814 | – | 0.796 | 0.587 | 0.668 | 0.568 | 0.473
BEN | 0.795 | 0.808 | 0.839 | 0.549 | 0.416 | 0.452 | 0.455 | 0.498 | 0.46 | 0.458 | 0.692 | 0.923 | 0.802 | 0.683 | 0.584 | 0.328 | 0.302 | 0.329 | 0.282 | 0.233
NCI-H2023 | 0.881 | 0.992 | 1.07 | 1.13 | 0.575 | 0.358 | – | 0.483 | 0.245 | 0.0543 | 0.564 | 0.811 | 0.76 | 0.657 | 0.34 | 0.599 | – | 0.605 | 0.226 | 0.0859
NCI-H1651 | 1.08 | 0.946 | 0.882 | 0.903 | 0.875 | 0.559 | 0.478 | 0.493 | 0.534 | 0.509 | 0.957 | 0.909 | 0.945 | 1.08 | 0.659 | 0.36 | 0.377 | 0.44 | 0.346 | 0.174
ABC-1 | 0.246 | 0.254 | 0.302 | 0.252 | 0.22 | 0.73 | – | 0.738 | 0.527 | 0.249 | 0.825 | 0.777 | 0.755 | 0.681 | 0.406 | 0.585 | 0.501 | 0.586 | 0.38 | 0.192
NCI-H1666 | 0.831 | 0.754 | 0.745 | 0.735 | – | 0.673 | 0.693 | 0.633 | 0.641 | 0.598 | 1.04 | 0.79 | 0.859 | 0.769 | 0.696 | 0.838 | 0.717 | 0.834 | 0.566 | 0.374
LCLC-103H | 1.07 | 1.23 | 1.03 | 1.05 | 1.01 | 0.495 | 0.49 | 0.503 | 0.457 | 0.347 | 1.05 | 1.03 | 1.12 | 1.19 | 0.857 | 0.531 | 0.503 | 0.503 | 0.523 | 0.236
LU99A | 1.11 | 1.21 | 1.18 | 1.23 | 1 | 0.41 | 0.281 | 0.396 | 0.498 | 0.297 | 0.451 | 0.566 | 0.545 | 0.531 | 0.459 | 0.615 | 0.405 | 0.54 | 0.449 | 0.235
NCI-H322M | 1.36 | 1.22 | 1.3 | 1.46 | 1.04 | 0.461 | – | 0.516 | 0.46 | 0.453 | 0.853 | 0.986 | 0.864 | 0.825 | 0.933 | 0.23 | – | 0.243 | 0.237 | 0.256
